Sander's compilation of Henry's law constants
“And” between values parts separate entries of the source, which are not always exact repeats. Identical values can stand only once.

What was measured:
[1] = Henry solubility constant Hcp at 313 K (mol/(m3 Pa)); settings: reference: Vitenberg et al. (1974)
[2] = Henry solubility constant Hcp at 298.15 K (mol/(m3 Pa))
[3] = Henry solubility constant Hcp at 301 K (mol/(m3 Pa)); settings: reference: Nelson and Hoff (1968)
[4] = Henry solubility constant Hcp at 308 K (mol/(m3 Pa)); settings: reference: Guo and Brimblecombe (2007)
[5] = Henry solubility constant Hcp at 283 K (mol/(m3 Pa))
[6] = Henry solubility constant Hcp at 323 K (mol/(m3 Pa)); settings: reference: Dallos et al. (1983)
[7] = Henry solubility constant Hcp at 290 K (mol/(m3 Pa)); settings: reference: Disselkamp et al. (1999)
[8] = Henry solubility constant Hcp at 275 K (mol/(m3 Pa)); settings: reference: Katrib et al. (2001)
[9] = Henry solubility constant Hcp at 287 K (mol/(m3 Pa)); settings: reference: Hempel (1901)
[10] = Henry solubility constant Hcp at 311 K (mol/(m3 Pa)); settings: reference: Grollman (1929)
[11] = Henry solubility constant Hcp at 288 K (mol/(m3 Pa)); settings: reference: Billitzer (1902)
[12] = Henry solubility constant Hcp at 333 K (mol/(m3 Pa)); settings: reference: Severit (1997)
[13] = Henry solubility constant Hcp at 310 K (mol/(m3 Pa)); settings: reference: Power and Stegall (1970)
[14] = Henry solubility constant Hcp at 273 K (mol/(m3 Pa)); settings: reference: Razumovskii and Zaikov (1971)
[15] = Henry solubility constant Hcp at 293 K (mol/(m3 Pa))
[16] = Henry solubility constant Hcp at 297 K (mol/(m3 Pa)); settings: reference: Nozière and Riemer (2003)
[17] = Henry solubility constant Hcp at 303 K (mol/(m3 Pa)); settings: reference: Richon et al. (1985)
[18] = Henry solubility constant Hcp at 353 K (mol/(m3 Pa)); settings: reference: St-Pierre et al. (2014)
[19] = Henry solubility constant Hcp at 284 K (mol/(m3 Pa)); settings: reference: George et al. (1994b)
[20] = Henry solubility constant Hcp at 278 K (mol/(m3 Pa)); settings: reference: De Bruyn et al. (1995a)
[21] = reference: Straver and de Loos (2005)
[22] = reference: Vitenberg et al. (1974)
[23] = reference: Morrison and Billett (1952)
[24] = reference: Orcutt and Seevers (1937a)
[25] = reference: Mirabel et al. (1996)

In the case of `CCCC(C)=O` [2-pentanone], the “Henry solubility constant Hcp at 313 K” value [1] is reported as 0.11, the “Henry solubility constant Hcp” value ([2]; reference: Chai et al. (2005)) is reported as 0.1 and the “Henry solubility constant Hcp” value ([2]; reference: Hawthorne et al. (1985)) is reported as 0.09. The “Henry solubility constant Hcp” value ([2]; reference: Hovorka et al. (2019)) was 0.13, the “Henry solubility constant Hcp” value ([2]; reference: Ji and Evans (2007)) was 0.16 and the “Henry solubility constant Hcp” value ([2]; reference: Kim et al. (2000)) was 0.11. The “Henry solubility constant Hcp” value [2, 21] was 0.086, the “Henry solubility constant Hcp” value [2, 22] was 0.17 and the “Henry solubility constant Hcp at 301 K” value [3] was 0.092.
With `O=[N+]([O-])c1cccc(O)c1` [3-nitrophenol] the “Henry solubility constant Hcp at 308 K” value [4] was 160.
For `O=[N+]([O-])c1ccc(O)cc1` [4-nitrophenol], the “Henry solubility constant Hcp at 308 K” value [4] was 210.
In the case of `Nc1ccccc1` [aminobenzene], the “Henry solubility constant Hcp” value ([2]; reference: Jayasinghe et al. (1992)) is reported as 5, the “Henry solubility constant Hcp at 283 K” value ([5]; reference: Heal et al. (1995)) is reported as 1.2 and the “Henry solubility constant Hcp at 323 K” value [6] is reported as 1.1.
In the case of `ClBr` [bromine chloride], the “Henry solubility constant Hcp at 290 K” value [7] is reported as 0.015, the “Henry solubility constant Hcp” value ([2]; reference: Bartlett and Margerum (1999)) is reported as 0.0093 and the “Henry solubility constant Hcp at 275 K” value [8] is reported as < 0.062.
With `O=C=S` [carbon oxide sulfide] the “Henry solubility constant Hcp” value ([2]; reference: De Bruyn et al. (1995b)) was 0.00022, the “Henry solubility constant Hcp” value ([2]; reference: Stock and Kuß (1917)) was 0.00024 and the “Henry solubility constant Hcp” value ([2]; reference: Winkler (1906)) was 0.00021. The “Henry solubility constant Hcp” value ([2]; reference: Winkler (1907)) was 0.00021 and the “Henry solubility constant Hcp at 287 K” value [9] was 0.00034.
In the case of `C=CCl` [chloroethene], the “Henry solubility constant Hcp” value ([2]; reference: Chen et al. (2012)) is reported as 0.00041, the “Henry solubility constant Hcp” value ([2]; reference: Gossett (1987)) is reported as 0.00037 and the “Henry solubility constant Hcp at 283 K” value ([5]; reference: Pearson and McConnell (1975)) is reported as 8.5e-06.
With `C=C` [ethene] the “Henry solubility constant Hcp” value ([2]; reference: Maaßen (1995)) was 4.9e-05, the “Henry solubility constant Hcp” value [2, 23] was 4.7e-05 and the “Henry solubility constant Hcp” value [2, 24] was 4.8e-05. For the same molecule, the “Henry solubility constant Hcp” value ([2]; reference: Reichl (1995)) was 4.8e-05, the “Henry solubility constant Hcp” value ([2]; reference: Winkler (1906)) was 4.8e-05 and the “Henry solubility constant Hcp at 311 K” value [10] was 3.4e-05.
For `C#C` [ethyne], the “Henry solubility constant Hcp” value ([2]; reference: Gatterer (1926)) was 0.00042, the “Henry solubility constant Hcp” value ([2]; reference: Jadkar and Chaudhari (1980)) was 0.0004 and the “Henry solubility constant Hcp” value ([2]; reference: Kremann and Hönel (1913)) was 0.00037. The “Henry solubility constant Hcp” value ([2]; reference: Maillard and Rosenthal (1952)) was 0.00025, the “Henry solubility constant Hcp” value ([2]; reference: Winkler (1906)) was 0.00041 and the “Henry solubility constant Hcp at 311 K” value [10] was 0.00033. For the same molecule, the “Henry solubility constant Hcp at 288 K” value [11] was 0.00051.
In the case of `[Cl][Hg][Cl]` [mercury dichloride], the “Henry solubility constant Hcp at 333 K” value [12] is reported as 1000.
In the case of `O=O` [oxygen], the “Henry solubility constant Hcp at 310 K” value [13] is reported as 1.1e-05, the “Henry solubility constant Hcp at 273 K” value [14] is reported as 0.00014 and the “Henry solubility constant Hcp” value ([2]; reference: Benson et al. (1979)) is reported as 1.3e-05. The “Henry solubility constant Hcp” value ([2]; reference: Bohr and Bock (1891)) was 1.3e-05, the “Henry solubility constant Hcp” value ([2]; reference: Bunsen (1855a)) was 1.2e-05 and the “Henry solubility constant Hcp” value ([2]; reference: Carpenter (1966)) was 1.2e-05. For the same molecule, the “Henry solubility constant Hcp” value ([2]; reference: Cosgrove and Walkley (1981)) was 1.3e-05, the “Henry solubility constant Hcp” value ([2]; reference: Cramer (1980)) was 1.3e-05 and the “Henry solubility constant Hcp” value ([2]; reference: Fox (1909)) was 1.3e-05. The “Henry solubility constant Hcp” value ([2]; reference: Geffcken (1904)) was 1.2e-05, the “Henry solubility constant Hcp” value ([2]; reference: Millero et al. (2002a)) was 1.2e-05 and the “Henry solubility constant Hcp” value ([2]; reference: Millero et al. (2002b)) was 1.2e-05. The “Henry solubility constant Hcp” value [2, 23] was 1.3e-05, the “Henry solubility constant Hcp” value ([2]; reference: Murray and Riley (1969)) was 1.3e-05 and the “Henry solubility constant Hcp” value [2, 24] was 1.2e-05. The “Henry solubility constant Hcp” value ([2]; reference: Rettich et al. (1981)) was 1.3e-05, the “Henry solubility constant Hcp” value ([2]; reference: Rettich et al. (2000)) was 1.3e-05 and the “Henry solubility constant Hcp” value ([2]; reference: Sherwood et al. (1991)) was 1.3e-05. The “Henry solubility constant Hcp” value ([2]; reference: Shoor et al. (1969)) was 1.2e-05, the “Henry solubility constant Hcp” value ([2]; reference: Timofejew (1890)) was 1.2e-05 and the “Henry solubility constant Hcp” value ([2]; reference: Winkler (1891b)) was 1.3e-05. For the same molecule, the “Henry solubility constant Hcp at 293 K” value ([15]; reference: da Silva et al. (1980)) was 1.2e-05.
For `CC(=O)OO[N+](=O)[O-]` [peroxyacetyl nitrate], the “Henry solubility constant Hcp” value ([2]; reference: Easterbrook et al. (2023)) was 0.03, the “Henry solubility constant Hcp” value ([2]; reference: Frenzel et al. (2000)) was 0.023 and the “Henry solubility constant Hcp” value ([2]; reference: Kames et al. (1991)) was 0.028. The “Henry solubility constant Hcp at 283 K” value ([5]; reference: Holdren et al. (1984)) was 0.049 and the “Henry solubility constant Hcp at 293 K” value ([15]; reference: Kames and Schurath (1995)) was 0.04.
In the case of `CC(C)=O` [propanone], the “Henry solubility constant Hcp at 297 K” value [16] is reported as 0.27, the “Henry solubility constant Hcp at 303 K” value [17] is reported as 0.19 and the “Henry solubility constant Hcp” value ([2]; reference: Benkelberg et al. (1995)) is reported as 0.27. For the same molecule, the “Henry solubility constant Hcp” value ([2]; reference: Betterton (1991)) was 0.32, the “Henry solubility constant Hcp” value ([2]; reference: Burnett (1963)) was 0.28 and the “Henry solubility constant Hcp” value ([2]; reference: Chai et al. (2005)) was 0.24. For the same molecule, the “Henry solubility constant Hcp” value ([2]; reference: Ioffe et al. (1984)) was 0.2, the “Henry solubility constant Hcp” value ([2]; reference: Ji and Evans (2007)) was 0.26 and the “Henry solubility constant Hcp” value ([2]; reference: Lichtenbelt and Schram (1985)) was 0.26. The “Henry solubility constant Hcp” value ([2]; reference: Poulain et al. (2010)) was 0.29, the “Henry solubility constant Hcp” value ([2]; reference: Schoene and Steinhanses (1985)) was 0.32 and the “Henry solubility constant Hcp” value ([2]; reference: Snider and Dawson (1985)) was 0.25. The “Henry solubility constant Hcp” value [2, 21] was 0.24, the “Henry solubility constant Hcp” value ([2]; reference: Strekowski and George (2005)) was 0.26 and the “Henry solubility constant Hcp” value [2, 22] was 0.25 and 0.32. The “Henry solubility constant Hcp” value ([2]; reference: Vitenberg et al. (1975)) was 0.25, the “Henry solubility constant Hcp at 301 K” value [3] was 0.31 and the “Henry solubility constant Hcp at 293 K” value ([15]; reference: Yu (1992)) was 0.17.
For `O=S=O` [sulfur dioxide], the “Henry solubility constant Hcp” value ([2]; reference: Johnstone and Leppla (1934)) was 0.012, the “Henry solubility constant Hcp” value ([2]; reference: Schoenfeld (1855)) was 0.014 and the “Henry solubility constant Hcp at 353 K” value [18] was 0.4.
In the case of `O=C(Cl)C(F)(F)F` [trifluoroacetylchloride], the “Henry solubility constant Hcp” value [2, 25] is reported as 0.02, the “Henry solubility constant Hcp at 284 K” value [19] is reported as 0.02 and the “Henry solubility constant Hcp at 278 K” value [20] is reported as 0.0027.
In the case of `O=C(F)C(F)(F)F` [trifluoroacetylfluoride], the “Henry solubility constant Hcp” value [2, 25] is reported as 0.03, the “Henry solubility constant Hcp at 284 K” value [19] is reported as 0.03 and the “Henry solubility constant Hcp at 278 K” value [20] is reported as 0.0095.
